Source: patent publication US9364474B2, “Method for treatment of neurologic dysfunction” (MedDEV, Inc., priority 2004, dated 2016)

Tests used:
patient with Autism = experiment: Case examples: patients with Autism (ASD), transdermal reserpine (with prior medication history); format: in vivo, human; conditions: for success of prior treatments: ASD Example Three: person, prior treatments tried
Procedure: The treatment composition is suitably applied in a single daily dose, e.g., 0.01 mg of the MAO-A agonist in 0.05 ml of spray solution applied once every morning.
Prior to administration of the present invention (transdermal reserpine), the patient's parents were provided with an informed consent documenting the potential risks, benefits and alternatives to this treatment. The patient was started on a dose of Reserpine at a 4× dilution resulting in a total dose of 0.01 mg. […] They were also given approximately 1400 mg of Calcium every morning.

MAO-A = conditions: Egashira et al (1996); Gnerre et al (2001); cited from earlier work
MAO-B = target: T1, MAO-B (Homo sapiens, UniProt P27338); conditions: Egashira et al (1996); Gnerre et al (2001); cited from earlier work
T1 sequence (P27338 1-520): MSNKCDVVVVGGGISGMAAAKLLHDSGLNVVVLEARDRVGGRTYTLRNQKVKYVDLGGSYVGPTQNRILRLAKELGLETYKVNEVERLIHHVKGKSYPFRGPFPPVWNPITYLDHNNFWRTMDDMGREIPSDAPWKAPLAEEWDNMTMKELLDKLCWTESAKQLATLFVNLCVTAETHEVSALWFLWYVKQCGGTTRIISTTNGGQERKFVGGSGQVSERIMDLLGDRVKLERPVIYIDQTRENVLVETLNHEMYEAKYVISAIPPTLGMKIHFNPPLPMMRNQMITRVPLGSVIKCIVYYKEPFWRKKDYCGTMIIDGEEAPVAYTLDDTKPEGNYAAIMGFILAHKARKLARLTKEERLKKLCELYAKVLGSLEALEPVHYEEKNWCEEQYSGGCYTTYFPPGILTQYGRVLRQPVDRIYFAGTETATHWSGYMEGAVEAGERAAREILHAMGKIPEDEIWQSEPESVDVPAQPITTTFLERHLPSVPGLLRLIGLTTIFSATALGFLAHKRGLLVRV

[1] = test system: patient suffering from depression; conditions: Depression Example Four; taking nortriptyline
Procedure: The treatment composition is suitably applied in a single daily dose, e.g., 0.01 mg of the MAO-A agonist in 0.05 ml of transdermal cream applied once every morning. Caffeine may also be included in the composition to compensate for the anti-hypertensive effect of the preferred reserpine; the caffeine may suitably be included in an amount from about 50-100 mg/dose.
Treatment was in the form of 0.01 mg of reserpine per 0.05 ml of transdermal cream, applied transdermally once a day in the morning.
The treatment consisted of 0.01 mg of reserpine per 0.05 ml of cream, applied transdermally by rubbing the cream into the skin once a day in the morning.
The treatment consisted of 0.01 mg of the reserpine per 0.05 ml of cream, applied transdermally by rubbing the cream into the skin once a day in the morning.
The patient discontinued the use of nortriptyline and the same day started the treatment of the present invention, using 0.01 mg of the reserpine per 0.05 ml cream, applied transdermally by rubbing the cream into the skin once a day in the morning.
The patient then started the treatment of the present invention, using 0.01 mg of the MAO-A activity stimulator (reserpine) per 0.05 ml cream, applied transdermally by rubbing the cream into the skin once a day in the morning.

[2] = test system: patient diagnosed with chronic schizophrenia; experiment: Case example: patient with chronic schizophrenia, transdermal reserpine spray (with prior medication history); format: in vivo, human; conditions: prior treatment
aldehyde dehydrogenase = conditions: literature; cited from earlier work
[3] = test system: ethanol-preferring laboratory hamsters; conditions: cited from earlier work

OCCOCCN1CCN(C2=Nc3ccccc3Sc3ccccc32)CC1 [Seroquel]
success of prior treatments (patient with Autism): none to minimal success

CN1Cc2c(N)cccc2C(c2ccccc2)C1 (stereo not drawn) [nomifensine]
activity towards MAO-A (MAO-A): inhibitory activity | activity towards MAO-B relative to MAO-A (MAO-B): clearly more potent selectivity for MAO-B

O=C1CC[C@@]2(O)[C@H]3Cc4ccc(O)c5c4[C@@]2(CCN3CC2CC2)[C@H]1O5 [naltrexone]
success of prior treatments (patient with Autism): none to minimal success

CNCCC(Oc1ccc(C(F)(F)F)cc1)c1ccccc1 (stereo not drawn) [fluoxetine]
activity towards MAO-A (MAO-A): inhibitory activity | activity towards MAO-B relative to MAO-A (MAO-B): clearly more potent selectivity for MAO-B

CN(C)CCCN1c2ccccc2CCc2ccccc21 [imipramine]
activity towards MAO-A (MAO-A): inhibitory activity | activity towards MAO-B relative to MAO-A (MAO-B): clearly more potent selectivity for MAO-B

OCCOCCN1CCN(C2=Nc3ccccc3Sc3ccccc32)CC1 [quetiapine]
functional benefit of prior medication (patient with Autism; ASD Example One, prior trials at therapeutic doses, only quetiapine of six medications): functional improvements

COc1ccc2[nH]cc(CCNC(C)=O)c2c1 [melatonin]
success of prior treatments (patient with Autism): none to minimal success

CCOc1ccccc1OCC1CNCCO1 (stereo not drawn) [viloxazine]
activity towards MAO-A (MAO-A): inhibitory activity | activity towards MAO-B relative to MAO-A (MAO-B): clearly more potent selectivity for MAO-B

COCCCC/C(=N\OCCN)c1ccc(C(F)(F)F)cc1 [fluvoxamine]
activity towards MAO-A (MAO-A): inhibitory activity | activity towards MAO-B relative to MAO-A (MAO-B): clearly more potent selectivity for MAO-B

CNCCC=C1c2ccccc2CCc2ccccc21 [nortriptyline]
activity towards MAO-A (MAO-A): inhibitory activity | symptoms persisting despite prior medication [1]: Decreased energy, fatigue • Early morning awakening | activity towards MAO-B relative to MAO-A (MAO-B): clearly more potent selectivity for MAO-B

CCCC(CCC)C(=O)O [depakote]
side effects of prior medication ([2]; Schizophrenia Example One: person, discontinued): extremely lethargic and obese | success of prior treatments (patient with Autism): none to minimal success

CN(C)C/C=C(/c1ccc(Br)cc1)c1cccnc1 [zimeldine]
activity towards MAO-A (MAO-A): inhibitory activity | activity towards MAO-B relative to MAO-A (MAO-B): clearly more potent selectivity for MAO-B

CN(C)CCCN1c2ccccc2CCc2ccc(Cl)cc21 [clomipramine]
activity towards MAO-A (MAO-A): inhibitory activity | activity towards MAO-B relative to MAO-A (MAO-B): clearly more potent selectivity for MAO-B

CN(C)CCC=C1c2ccccc2CCc2ccccc21 [amitriptyline]
activity towards MAO-A (MAO-A): inhibitory activity | activity towards MAO-B relative to MAO-A (MAO-B): clearly more potent selectivity for MAO-B

O=C1CCc2ccc(OCCCCN3CCN(c4cccc(Cl)c4Cl)CC3)cc2N1 [Abilify]
tolerability and efficacy of prior medication ([2]; Schizophrenia Example One): tolerated better but still had many symptoms unresolved

COC(=O)C(c1ccccc1)C1CCCCN1 (stereo not drawn) [Ritalin]
success of prior treatments (patient with Autism): none to minimal success

CN(C)CCC=C1c2ccccc2COc2ccccc21 [doxepine]
activity towards MAO-A (MAO-A): inhibitory activity | activity towards MAO-B relative to MAO-A (MAO-B): clearly more potent selectivity for MAO-B

CNCCCC12CCC(c3ccccc31)c1ccccc12 [maprotiline]
activity towards MAO-A (MAO-A): inhibitory activity | activity towards MAO-B relative to MAO-A (MAO-B): clearly more potent selectivity for MAO-B

O=c1c(-c2ccc(O)cc2)coc2cc(O[C@@H]3O[C@H](CO)[C@@H](O)[C@H](O)[C@H]3O)ccc12 [daidzin]
effect on aldehyde dehydrogenase (aldehyde dehydrogenase): inhibits aldehyde dehydrogenase | effect on ethanol intake [3]: suppress ethanol intake
